From patent publication US20150072416A1, “METABOLITE FOR IMPROVING PRODUCTION, MAINTENANCE AND PROLIFERATION OF PLURIPOTENT STEM CELLS, COMPOSITION COMPRISING THE SAME, AND METHOD OF CULTURING PLURIPOTENT STEM CELL USING THE SAME” (KOREA RESEARCH INSTITUTE OF BIOSCIENCE AND BIOTENOLOGY, priority 2012, published 2015) come the findings set out here.

Data set [1] has as its system H9 human embryonic stem cells and human induced pluripotent stem cells. The data set is described as follows: Low-density cloning after single-cell dissociation (AP staining, apoptosis). Format: cell-based. The note with it: AP staining and apoptosis assays. As for the experimental part: (§1) In order to examine the effect of nicotinamide on a reduction in the apoptosis of human pluripotent stem cells, dual apoptosis assay (Biotium, Hayward, Calif.) was performed. Embryonic stem cells or cells reprogrammed were stained with NucView™488 Caspase-3 Substrate (green)/Annextin V (red) at room temperature for 30 minutes, followed by washing with PBS. At least 4 sections of each sample were imaged with an Olympus fluorescence microscope (IX51, Olympus), and the number of cells stained with green (Caspase-3) was counted to quantify the degree of apoptosis.
In order to examine the effect of nicotinamide on the survival of human pluripotent stem cells at low density, human pluripotent stem cells were treated with TrypLE reagent (Invitrogen) for 3 minutes, and then dissociated into single cells by pipetting and seeded on a Matrigel-coated 96-well plate at a density of 500 cells per well. After 5 days of culture, human pluripotent stem cell colonies started to be formed, and the cells were fixed with 4% paraformaldehyde, and then AP staining was performed or the level of apoptosis was measured.

Data set [2] relates to human pluripotent stem cells. In words: Long-term subculture in UM with nicotinamide (TRA-1-60 staining, karyotyping). Format: cell-based.
In data set [3] the test system is H9 human embryonic stem cells. The data set is described as follows: BrdU incorporation assay in human embryonic stem cells in mTeSR1. Format: cell-based. As to the method: For 5-bromo)-2-deoxyuridine (BrdU; BD Pharmingen, San Diego) incorporation assays, human embryonic stem cells were cultured on Matrigel-coated 4-well LabTec chamber slides for 4 days.
Specifically, for BrdU incorporation, cells were incubated in the presence of 30 μM BrdU at 37° C. for 1 hour. After washing with PBS, the cells were fixed with 4% paraformaldehyde for 15 minutes and reacted in 1N HCl at room temperature for 15 minutes. The sample was washed and reacted with 0.1 M sodium tetraborate for 15 minutes. After washing, the cells were reacted with anti-BrdU antibody in 3% BSA-containing PBS for 1 hour, and then reacted with FITC-conjugated secondary antibody for 30 minutes.
In order to verify the effect of nicotinamide on the proliferation of pluripotent stem cells, a BrdU incorporation assay was performed. Nicotinamide was added to mTeSR1 (CDM) at various concentrations, and the effects thereof were examined.
On the technique in general: Dividing cells build labelled thymidine or BrdU into new DNA.

For data set [4], the system named is human fibroblasts transfected with reprogramming factor OSKM. The data set is described as follows: Quantification of protein damage caused by oxidative stress. Format: cell-based. The following applies: 1 mM. As to the method: On days 12, 19 and 26 of induction of reprogramming, protein was isolated from a control group and a nicotinamide-treated group (Nam), after which it was quantified and treated with 2,4-dinitrophenylhydrazine to expose the carbonyl group. The protein was separated according to molecular weight using 10% SDS-polyacrylamide gel, and then protein damage caused by oxidative stress was analyzed using dinitrophenyl antibody. After normalization to the expression level of β-actin, the degree of damage was quantified relative to the degree of damage to hFFs taken as 1.

Data set [5] shares this test system. In words: Senescence-associated beta-galactosidase staining and senescence-associated DNA damage staining during reprogramming. The following applies: for decrease in number of senescent cells: 10 mM. Format: cell-based. As to the method:
On day 26 of induction of reprogramming, the cells were fixed with a fixation solution at room temperature for 10 minutes, and then stained with a β-galactosidase solution at room temperature for 15 minutes. Next, the DNA was stained with DAPI (4′,6-diamidino-2-phenylindole) for 5 minutes, and then the cells were imaged by phase-contrast and fluorescence microscopy. The number of cells having senescence (green) damaged DNA (blue combined points) was counted and quantified relative to the number of normal cells.

Data set [6] deals with H9 human embryonic stem cells. In words: Mitochondrial membrane potential of human embryonic stem cells by JC-1 staining. The note with it: 0.1 mM nicotinamide in mTeSR1. Format: cell-based. As to the method:
In an example of the present invention, the membrane potential (ΔΨm) of mitochondria was measured after treatment with nicotinamide. When human embryonic stem cells were maintained and cultured, the membrane potential of mitochondria in the human embryonic stem cells was measured by JC-1 staining after addition of various concentrations of nicotinamide to mTeSR1. After JC-1 staining, activated mitochondria are stained with red, and non-activated mitochondria are stained with green. The ratio of the number of red-stained mitochondria to the number of green-stained mitochondria is measured, and an increase in the ratio indicates an increase in activated mitochondria.
In addition, the present inventors measured the membrane potential (ΔΨm) of mitochondria. When human embryonic stem cells were maintained and cultured, various concentrations of nicotinamide were added to mTeSR1, and then the mitochondrial membrane potential of the human embryonic stem cells was measured by JC-1 staining. After JC-1 staining, activated mitochondria are stained with red, and non-activated mitochondria are stained with green. The ratio of the number of red-stained mitochondria to the number of green-stained mitochondria is measured, and an increase in the ratio indicates an increase in the number of activated mitochondria.

Another data set deals with embryonic stem cells. In words: Embryonic stem cells treated with NAD+ synthesis inhibitor FK866 and NAD precursors (NAD level, AP activity, apoptosis). Format: cell-based, human. The following applies: co-treatment with FK866; also in mTeSR1-CDM. As to the method: Embryonic stem cells were treated with nicotinamide and related compounds, and after 6 days, protein was isolated from the cells. NAD cycling enzyme was added to and reacted with 20 μg of the protein per each group at room temperature for 5 minutes, and then a NADH developer was added and reacted therewith for 2-3 hours. The absorbance at 450 nm was measured using a microplate reader, and the amount of the […] was quantified.
AP staining was performed using a commercial AP kit (Sigma) according to the manufacturer's instruction. Images of AP-positive cells were recorded with HP Scanjet G4010. Also, bight field images were obtained with an Olympus microscope (IX51, Olympus, Japan).
as §1

Data set [7] concerns human fibroblasts transfected with reprogramming factor OSKM. In words: Measurement of reactive oxygen species during reprogramming. Format: cell-based. The note with it: 1 mM, day 19 of induction of reprogramming. As to the method: On day 19 of induction of reprogramming, the cells were dissociated into single cells by trypsin, and then stained with 5 μM of CM-H2DCFDA (2,7-dichlorodihydrofluresceindiacetat) at 37° C. for 30 minutes. Cells treated with 100 μM of hydrogen peroxide (H2O2) were used as a positive control group for the formation of reactive oxygen species, and the degree of fluorescence staining was measured by flow cytometry and quantified.

On to `NC(=O)c1cccnc1` [nicotinamide], for which the “survival and self-renewal abilities at low density after single-cell dissociation” value in data set [1] was “significantly increased”. Also, the “passages subcultured in an undifferentiated state” value in data set [2] (UM with 0.1 mM nicotinamide, TRA-1-60 staining) is at least 10 passages. For the same compound, the “karyotype after long-term subculture” value in data set [2] (nicotinamide-containing medium) is given as “normal karyotypes”. Moreover, the “increase in BrdU incorporation” value stood at 1.6 times in data set [3] (0.1 mM in mTeSR1, compared to cells cultured in mTeSR1) and 1.2 times in data set [3] (1 mM in mTeSR1, compared to cells cultured in mTeSR1). Further, the “amount of damaged protein (oxidative stress)” value in data set [4] was “decreased”. Besides, in data set [5] (1 mM, compared to control group), the “decrease in cellular senescence-associated DNA damage” value is 83.0±0.5%. Further, the “decrease in ratio of cells stained with senescence-associated beta-galactosidase” value is recorded as 88.1±1.4% in data set [5] (1 mM, day 19, compared to untreated group) and 76.9±2.5% in data set [5] (1 mM, day 26, compared to untreated group). For the same compound, the “decrease in number of senescent cells” value came to 76.1±1.4% in data set [5] (day 19, compared to control group) and 30.8±9.0% in data set [5] (day 21, compared to control group). The “number of activated mitochondria / mitochondrial membrane potential (JC-1 red/green)” value in data set [6] is recorded as “significantly increased”. Also, the “recovery from damage caused by FK866” value in the data set with embryonic stem cells is on record as “recovered”. Moreover, the “formation of reactive oxygen species” value in data set [7] was “inhibited”.
